This experiment concerns human NKT cells. Description: XCL1 secretion from human NKT cells (ELISA). It counts as cell-based. The settings on record: human NKT cell, FIG. 18. On the procedure: Briefly, to generate human NKT cells the buffy coats from human donors' peripheral blood were obtained from RESEARCH BLOOD COMPONENTS LLC and separated using differential centrifugation on a FICOLL density gradient. Magnetically Isolated CD14^neg cells were cultured with 10 U/ml rhIL-2 for 5 days. Then, Vα24^+ hNKT cells were magnetically isolated and incubated for 2 days with mitomycin C-treated human dendritic cells loaded with α-galactosylceramide (α-GalCer)+20 U/ml rhIL-2. Then, the cells were harvested and further expanded for 10 days in complete RPMI medium+20 U/ml rhIL-2, with medium replacement every 2 days. Finally, the purity of Vα24Jα18^+ CD3^+ human NKT cells was estimated using flow cytometry (˜99%) and cells were frozen in complete RPMI medium+10% dimethyl sulfoxide (DMSO) at 5×10^6 cells per vial. For assaying the effect of M. schaedleri supernatant on human NKT cells, frozen cells were thawed and cultured in complete RPMI medium+rhIL-2 at cell density of 200,000 cells per well in a 96-well plate. The cells were treated with either sterile mBHI or M. schaedleri CDM at 20% volume per volume (v/v) for 16 h and then the culture supernatant was collected. As a positive control for activation, anti-human CD3 was used to stimulate the NKT cells. XCL1 concentration was measured using ONESTEP HUMAN XCL1 ELISA (ABCAM) according to the manufacturer's instructions. […]
A general note: ELISA stands for enzyme-linked immunosorbent assay.

1 molecule from patent US20260027162A1, “MUCISPIRILLUM COMPOSITIONS AND CANCER TREATMENT METHODS THEREOF” (PRESIDENT AND FELLOWS OF HARVARD COLLEGE, priority 2022, published 2026) can be followed below.

Consider `O=C(O)c1cccnc1` [Pool 3, nicotinic acid], for which the “NKT XCL1 production, metabolite pools” value is “activity above that of the medium control”.
